ChEMBL document CHEMBL1201862, “PubChem BioAssay data set” (2004)
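Where inhibition never reached the appropriate level, the endpoint shown equals the highest concentration tested. Otherwise, values were interpolated linearly from a five-concentration, 48-hour dose response in 96-well plates. GI50: concentration for 50% inhibition of growth.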 Active and inactive are the calls of the source. No stated cut-off is given here; in the data, active = GI50 up to about 1.1 µM and inactive = higher.

Key:
Assay in all cases: growth of human tumour cells (NCI), 48 h
DU-145 = system: DU-145
SK-MEL-5 = system: SK-MEL-5
HCT-15 = system: HCT-15
MCF7 = system: MCF7
HCC 2998 = system: HCC 2998
COLO 205 = system: COLO 205
SR = system: SR
U-251 = system: U-251
MDA-N = system: MDA-N
UACC-257 = system: UACC-257
MDA-MB-231 = system: MDA-MB-231
SF-295 = system: SF-295
HCT-116 = system: HCT-116
NCI/ADR-RES = system: NCI/ADR-RES
SF-268 = system: SF-268
LOX IMVI = system: LOX IMVI
RXF 393 = system: RXF 393
CCRF-CEM = system: CCRF-CEM
SNB-19 = system: SNB-19
OVCAR-4 = system: OVCAR-4
K562 = system: K562
SK-MEL-2 = system: SK-MEL-2
EKVX = system: EKVX
TK-10 = system: TK-10
SNB-75 = system: SNB-75
NCI-H23 = system: NCI-H23
MOLT-4 = system: MOLT-4
PC-3 = system: PC-3
RPMI-8226 = system: RPMI-8226
NCI-H522 = system: NCI-H522
SF-539 = system: SF-539
SK-MEL-28 = system: SK-MEL-28
A549 = system: A549
OVCAR-3 = system: OVCAR-3
HT-29 = system: HT-29
HL-60 = system: HL-60
HOP-92 = system: HOP-92
UO-31 = system: UO-31
OVCAR-8 = system: OVCAR-8
T47D = system: T47D
M14 = system: M14
MDA-MB-435 = system: MDA-MB-435
Hs-578T = system: Hs-578T
NCI-H460 = system: NCI-H460
CAKI-1 = system: CAKI-1
SK-OV-3 = system: SK-OV-3
UACC-62 = system: UACC-62
KM12 = system: KM12
IGROV-1 = system: IGROV-1
SN12C = system: SN12C
ACHN = system: ACHN
OVCAR-5 = system: OVCAR-5
SW-620 = system: SW-620
A498 = system: A498
786-0 = system: 786-0
Malme-3M = system: Malme-3M
NCI-H226 = system: NCI-H226
HOP-62 = system: HOP-62

For `NC(Cc1ccc(CP(=O)(O)O)cc1)C(=O)O` (stereo not given), the GI50 (DU-145) was > 100 µM (inactive), the GI50 (SK-MEL-5) was > 100 µM (inactive) and the GI50 (HCT-15) was > 100 µM. For the same molecule, the GI50 (MCF7) was > 100 µM (inactive), the GI50 (HCC 2998) was > 100 µM (inactive) and the GI50 (COLO 205) was > 100 µM (inactive). The GI50 (SR) was > 100 µM (inactive), the GI50 (U-251) was > 100 µM (inactive) and the GI50 (MDA-N) was > 100 µM (inactive). For the same molecule, the GI50 (UACC-257) was > 100 µM (inactive), the GI50 (MDA-MB-231) was > 100 µM (inactive) and the GI50 (SF-295) was > 100 µM (inactive). For the same molecule, the GI50 (HCT-116) was > 100 µM (inactive), the GI50 (NCI/ADR-RES) was > 100 µM (inactive) and the GI50 (SF-268) was > 100 µM (inactive). The GI50 (LOX IMVI) was > 100 µM (inactive), the GI50 (RXF 393) was > 100 µM (inactive) and the GI50 (CCRF-CEM) was > 100 µM (inactive). The GI50 (SNB-19) was > 100 µM (inactive), the GI50 (OVCAR-4) was > 100 µM (inactive) and the GI50 (K562) was > 100 µM (inactive). For the same molecule, the GI50 (SK-MEL-2) was > 100 µM (inactive), the GI50 (EKVX) was > 100 µM (inactive) and the GI50 (TK-10) was > 100 µM (inactive). The GI50 (SNB-75) was > 100 µM (inactive), the GI50 (NCI-H23) was > 100 µM (inactive) and the GI50 (MOLT-4) was > 100 µM (inactive). The GI50 (PC-3) was > 100 µM (inactive), the GI50 (RPMI-8226) was > 100 µM (inactive) and the GI50 (NCI-H522) was > 100 µM (inactive). For the same molecule, the GI50 (SF-539) was > 100 µM (inactive), the GI50 (SK-MEL-28) was > 100 µM (inactive) and the GI50 (A549) was > 100 µM (inactive). For the same molecule, the GI50 (OVCAR-3) was > 100 µM (inactive), the GI50 (HT-29) was > 100 µM (inactive) and the GI50 (HL-60) was > 100 µM (inactive). The GI50 (HOP-92) was > 100 µM (inactive), the GI50 (UO-31) was > 100 µM (inactive) and the GI50 (OVCAR-8) was > 100 µM (inactive). The GI50 (T47D) was > 100 µM (inactive), the GI50 (M14) was > 100 µM (inactive) and the GI50 (MDA-MB-435) was > 100 µM (inactive). For the same molecule, the GI50 (Hs-578T) was > 100 µM (inactive), the GI50 (NCI-H460) was > 100 µM (inactive) and the GI50 (CAKI-1) was 11.5 µM (inactive). For the same molecule, the GI50 (SK-OV-3) was > 100 µM (inactive), the GI50 (UACC-62) was > 100 µM (inactive) and the GI50 (KM12) was > 100 µM (inactive). The GI50 (IGROV-1) was > 100 µM (inactive), the GI50 (SN12C) was > 100 µM (inactive) and the GI50 (ACHN) was > 100 µM (inactive). For the same molecule, the GI50 (OVCAR-5) was > 100 µM (inactive) and the GI50 (SW-620) was > 100 µM (inactive).

`CC(=O)N(CN1C(=O)CCC1C(=O)O)c1ccccc1Cl` (stereo not given) was tested, and the GI50 (DU-145) was > 100 µM (inactive), the GI50 (SK-MEL-5) was > 100 µM (inactive) and the GI50 (HCT-15) was > 100 µM. The GI50 (MCF7) was > 100 µM (inactive), the GI50 (HCC 2998) was > 100 µM (inactive) and the GI50 (A498) was > 100 µM (inactive). For the same molecule, the GI50 (COLO 205) was > 100 µM (inactive), the GI50 (U-251) was > 100 µM (inactive) and the GI50 (MDA-N) was > 100 µM (inactive). The GI50 (UACC-257) was > 100 µM (inactive), the GI50 (MDA-MB-231) was > 100 µM (inactive) and the GI50 (SF-295) was > 100 µM (inactive). The GI50 (HCT-116) was > 100 µM (inactive), the GI50 (NCI/ADR-RES) was > 100 µM (inactive) and the GI50 (SF-268) was > 100 µM (inactive). The GI50 (LOX IMVI) was > 100 µM (inactive), the GI50 (RXF 393) was > 100 µM (inactive) and the GI50 (CCRF-CEM) was > 100 µM (inactive). For the same molecule, the GI50 (SNB-19) was > 100 µM (inactive), the GI50 (OVCAR-4) was > 100 µM (inactive) and the GI50 (K562) was > 100 µM (inactive). The GI50 (SK-MEL-2) was > 100 µM (inactive), the GI50 (EKVX) was > 100 µM (inactive) and the GI50 (TK-10) was > 100 µM (inactive). For the same molecule, the GI50 (SNB-75) was > 100 µM (inactive), the GI50 (NCI-H23) was > 100 µM (inactive) and the GI50 (786-0) was > 100 µM (inactive). The GI50 (MOLT-4) was > 100 µM (inactive), the GI50 (PC-3) was > 100 µM (inactive) and the GI50 (RPMI-8226) was > 100 µM (inactive). For the same molecule, the GI50 (NCI-H522) was > 100 µM (inactive), the GI50 (SF-539) was > 100 µM (inactive) and the GI50 (SK-MEL-28) was > 100 µM (inactive). For the same molecule, the GI50 (A549) was > 100 µM (inactive), the GI50 (OVCAR-3) was > 100 µM (inactive) and the GI50 (HT-29) was > 100 µM (inactive). The GI50 (HL-60) was > 100 µM (inactive), the GI50 (HOP-92) was > 100 µM (inactive) and the GI50 (UO-31) was > 100 µM (inactive). For the same molecule, the GI50 (OVCAR-8) was > 100 µM (inactive), the GI50 (T47D) was > 100 µM (inactive) and the GI50 (M14) was > 100 µM (inactive). For the same molecule, the GI50 (MDA-MB-435) was > 100 µM (inactive), the GI50 (Hs-578T) was > 100 µM (inactive) and the GI50 (NCI-H460) was > 100 µM (inactive). For the same molecule, the GI50 (Malme-3M) was > 100 µM (inactive), the GI50 (CAKI-1) was > 100 µM (inactive) and the GI50 (SK-OV-3) was > 100 µM (inactive). For the same molecule, the GI50 (UACC-62) was > 100 µM (inactive), the GI50 (KM12) was > 100 µM (inactive) and the GI50 (NCI-H226) was > 100 µM (inactive). The GI50 (IGROV-1) was > 100 µM (inactive), the GI50 (SN12C) was > 100 µM (inactive) and the GI50 (ACHN) was > 100 µM (inactive). For the same molecule, the GI50 (HOP-62) was > 100 µM (inactive), the GI50 (OVCAR-5) was > 100 µM (inactive) and the GI50 (SW-620) was > 100 µM (inactive).
